Legend:
dog [1] = conditions: Subchronic oral toxicity in nonrodent, beagle, Capsule, dose end: 90 day, group: systemic, systemic / clinical chemistry / [other] / [other] + systemic / clinical chemistry / alkaline phosphatase (alp/alk) / alkaline phosphatase (…
rat [2] = conditions: Combined chronic toxicity/carcinogenicity, sprague dawley, Oral, Feed, dose end: 24 month, group: systemic
rat [3] = conditions: Prenatal developmental toxicity study, other, Oral, Gavage/Intubation, dose end: 15 GD
rat [4] = conditions: Subchronic oral toxicity in rodents, other, Feed, dose end: 90 day, group: systemic, systemic / in life observation / body weight / body weight gain + systemic / pathology microscopic / kidney / regeneration + systemic / …
mouse [5] = conditions: Carcinogenicity, cd1, Oral, Feed, dose end: 78 week, group: systemic
rat [6] = conditions: Multigenerational reproductive toxicity study, sprague dawley, Oral, Feed, dose end: 2 generation
rat [7] = conditions: Subchronic oral toxicity in rodents, sprague dawley, Feed, dose end: 90 day, group: systemic, systemic / organ weight / kidney / absolute + systemic / organ weight / kidney / relative to body weight + systemic / organ weight / kidney…
dog [8] = conditions: Subchronic oral toxicity in nonrodent, beagle, Feed, dose end: 90 day, group: systemic, systemic / clinical chemistry / alkaline phosphatase (alp/alk) / alkaline phosphatase (alp/alk) + systemic / organ weight / liver / absolute…
rat [9] = conditions: Subchronic oral toxicity in rodents, other, Feed, dose end: 90 day, group: systemic
dog [10] = conditions: Chronic toxicity, beagle, Oral, Feed, dose end: 52 week, group: systemic
rat [11] = conditions: Combined chronic toxicity/carcinogenicity, fischer, Oral, Feed, dose end: 24 month, group: systemic
mouse [12] = conditions: Carcinogenicity, cd1, Oral, Feed, dose end: 18 month, group: systemic
rat [13] = conditions: Subchronic oral toxicity in rodents, fischer, Feed, dose end: 3 month, group: systemic
rat [14] = conditions: Multigenerational reproductive toxicity study, sprague dawley, Oral, Feed, dose end: 2 generation; remark: listed apart in the source
mouse [15] = conditions: Subchronic oral toxicity in rodents, cd1, Feed, dose end: 13 week, group: systemic, systemic / pathology microscopic / adrenal gland / vacuolization cytoplasmic + systemic / pathology microscopic / bone marrow / …
dog [16] = conditions: Subchronic oral toxicity in nonrodent, beagle, Feed, dose end: 13 week, group: systemic, systemic / pathology microscopic / intestine large / vacuolization + systemic / pathology microscopic / intestine small / vacuolization + …
rat [17] = conditions: Subchronic oral toxicity in rodents, fischer, Feed, dose end: 13 week, group: systemic, systemic / pathology microscopic / thyroid gland / vacuolization + systemic / organ weight / heart / nos
[18] = systemic / in life observation / body weight / body weight + systemic / in life observation / body weight / body weight gain + systemic / in…
[19] = group: developmental, developmental / developmental malformation / aortic arch / retroesophageal + developmental / developmental malformation / bone / misshapen…
[20] = group: maternal, systemic / in life observation / body weight / body weight + systemic / in life observation / body weight / body weight gain
[21] = group: maternal, systemic / in life observation / body weight / body weight + systemic / in life observation / body weight / body weight gain + reproductive…
[22] = systemic / in life observation / mortality / mortality + systemic / organ weight / kidney / absolute + systemic / organ weight / kidney / …
[23] = group: offspring, developmental / offspring survival late / [other] / [other] + developmental / offspring survival late / viability index / viability index + …
[24] = group: offspring, systemic / pathology microscopic / kidney / dilatation
[25] = group: parental, systemic / in life observation / body weight / body weight + systemic / in life observation / food consumption / food consumption + systemic…
[26] = systemic / pathology microscopic / liver / inclusion body intracytoplasmic
[27] = systemic / pathology microscopic / lymph node / vacuolization + systemic / pathology microscopic / spleen / vacuolization + systemic / organ…
[28] = systemic / pathology microscopic / thyroid gland / vacuolization
[29] = systemic / pathology microscopic / thyroid gland / vacuolization + systemic / clinical chemistry / alkaline phosphatase (alp/alk) / alkaline…
[30] = systemic / pathology microscopic / heart / cardiomyopathy + systemic / pathology microscopic / lymph node / histiocytosis + systemic / …
[31] = systemic / pathology microscopic / lymph node / histiocytosis + systemic / pathology microscopic / spleen / histiocytosis + systemic / …
[32] = group: offspring, systemic / in life observation / body weight / offspring (pup) weight
[33] = group: parental, systemic / organ weight / heart / absolute + systemic / organ weight / heart / relative to body weight + systemic / organ weight / kidney / …
[34] = group: reproductive, reproductive / offspring survival early / litter size / litter size + reproductive / offspring survival early / birth index / live birth …

SMILES: O=C(O)CCCOc1ccc(Cl)cc1Cl [2,4-DB]
- LEL (dog [1]): 25 mg/kg/day
- LOAEL (dog [1]): 25 mg/kg/day
- NEL (dog [1]): 8 mg/kg/day
- NOAEL (dog [1]): 8 mg/kg/day
- LOAEL (rat [2]; [18]): 30 mg/kg/day
- NOAEL (rat [2]; [18]): 3 mg/kg/day
- NEL (rat [2]; systemic / organ weight / liver / absolute + systemic / organ weight / heart / absolute + systemic / organ weight / spleen / absolute + …): 90 mg/kg/day
- LEL (rat [3]; [19]): 125 mg/kg/day
- LOAEL (rat [3]; [19]): 125 mg/kg/day
- NEL (rat [3]; [19]): 62.5 mg/kg/day
- NOAEL (rat [3]; [19]): 62.5 mg/kg/day
- LEL (rat [3]; [20]): 62.5 mg/kg/day
- LOAEL (rat [3]; [20]): 62.5 mg/kg/day
- NEL (rat [3]; [21]): 31.2 mg/kg/day
- NOAEL (rat [3]; [21]): 31.2 mg/kg/day
- LEL (rat [4]): 50 mg/kg/day
- LOAEL (rat [4]): 50 mg/kg/day
- NEL (rat [4]): 15.8 mg/kg/day
- NOAEL (rat [4]): 15.8 mg/kg/day
- LOAEL (mouse [5]; [22]): 112 mg/kg/day
- NOAEL (mouse [5]; [22]): 37.5 mg/kg/day
- LEL (mouse [5]; systemic / in life observation / mortality / mortality + systemic / pathology microscopic / kidney / amyloid deposition + systemic / …): 112 mg/kg/day
- NEL (mouse [5]; systemic / organ weight / kidney / absolute + systemic / organ weight / kidney / relative to body weight + systemic / organ weight / liver…): 37.5 mg/kg/day
- LOAEL (rat [6]; [23]): 112 mg/kg/day
- NOAEL (rat [6]; [23]): 25 mg/kg/day
- LEL (rat [6]; [24]): 25 mg/kg/day
- NEL (rat [6]; [24]): 5 mg/kg/day
- LEL (rat [6]; [25]): 112 mg/kg/day
- LOAEL (rat [6]; [25]): 112 mg/kg/day
- NEL (rat [6]; [25]): 25 mg/kg/day
- NOAEL (rat [6]; [25]): 25 mg/kg/day
- LEL (rat [7]): 41.9 mg/kg/day
- LOAEL (rat [7]): 41.9 mg/kg/day
- NEL (rat [7]): 4.16 mg/kg/day
- NOAEL (rat [7]): 4.16 mg/kg/day

SMILES: COCC(=O)N(c1c(C)cccc1C)[C@H](C)C(=O)OC [Metalaxyl-M]
- LEL (dog [8]): 38.6 mg/kg/day
- LOAEL (dog [8]): 38.6 mg/kg/day
- NEL (dog [8]): 7.25 mg/kg/day
- NOAEL (dog [8]): 7.25 mg/kg/day
- LEL (rat [9]; [26]): 44.8 mg/kg/day
- NEL (rat [9]; [26]): 16.8 mg/kg/day
- LOAEL (rat [9]; systemic / pathology microscopic / liver / infiltration cellular + systemic / pathology microscopic / liver / inclusion body …): 90.5 mg/kg/day

SMILES: CC[C@H]1CCC[C@H](O[C@H]2CC[C@H](N(C)C)[C@@H](C)O2)[C@@H](C)C(=O)C2=C[C@@H]3[C@@H](C=C(C)[C@@H]4C[C@@H](O[C@@H]5O[C@@H](C)[C@H](OC)[C@@H](OC)[C@H]5OC)C[C@@H]34)[C@@H]2CC(=O)O1.CC[C@H]1CCC[C@H](O[C@H]2CC[C@H](N(C)C)[C@@H](C)O2)[C@@H](C)C(=O)C2=C[C@@H]3[C@@H](C=C[C@@H]4C[C@@H](O[C@@H]5O[C@@H](C)[C@H](OC)[C@@H](OC)[C@H]5OC)C[C@@H]34)[C@@H]2CC(=O)O1 [Spinosad]
- LOAEL (dog [10]; systemic / pathology microscopic / lymph node / vacuolization + systemic / pathology microscopic / spleen / vacuolization): 8.22 mg/kg/day
- LEL (dog [10]; [27]): 8.22 mg/kg/day
- NEL (dog [10]; [27]): 2.72 mg/kg/day
- NOAEL (dog [10]; [27]): 2.72 mg/kg/day
- LEL (rat [11]; [28]): 9.5 mg/kg/day
- LOAEL (rat [11]; [28]): 24.1 mg/kg/day
- NEL (rat [11]; [29]): 2.4 mg/kg/day
- NOAEL (rat [11]; [29]): 9.5 mg/kg/day
- LOAEL (mouse [12]; systemic / hematology / leukocyte (wbc) count differential / leukocyte (wbc)): 41.5 mg/kg/day
- NOAEL (mouse [12]; systemic / hematology / leukocyte (wbc) count differential / leukocyte (wbc) + systemic / organ weight / liver / relative to body weight + …): 1.3 mg/kg/day
- NEL (mouse [12]; systemic / organ weight / brain / relative to body weight): 1.1 mg/kg/day
- LEL (mouse [12]; systemic / organ weight / brain / relative to body weight + systemic / in life observation / body weight / body weight + systemic / in life …): 32.7 mg/kg/day
- LOAEL (rat [13]; [30]): 68.5 mg/kg/day
- NOAEL (rat [13]; [30]): 33.9 mg/kg/day
- LEL (rat [13]; [31]): 33.9 mg/kg/day
- NEL (rat [13]; [31]): < 33.9 mg/kg/day
- LEL (rat [14]; [32]): 10 mg/kg/day
- NEL (rat [14]; [32]): 3 mg/kg/day
- NOAEL (rat [14]; group: offspring, systemic / in life observation / clinical signs / hemorrhagic perineal discharge): 10 mg/kg/day
- LOAEL (rat [14]; group: offspring, systemic / in life observation / clinical signs / hemorrhagic perineal discharge + systemic / in life observation / body weight / offspring…): 100 mg/kg/day
- LEL (rat [14]; [33]): 100 mg/kg/day
- LOAEL (rat [14]; [33]): 100 mg/kg/day
- NEL (rat [14]; [33]): 10 mg/kg/day
- NOAEL (rat [14]; [33]): 10 mg/kg/day
- NEL (rat [14]; [34]): 10 mg/kg/day
- NOAEL (rat [14]; [34]): 10 mg/kg/day
- LOAEL (rat [14]; group: reproductive, reproductive / offspring survival early / litter size / litter size + reproductive / reproductive performance / dystocia / dystocia): 100 mg/kg/day
- LEL (rat [14]; group: reproductive, reproductive / offspring survival early / litter size / litter size + reproductive / reproductive performance / dystocia / dystocia + …): 100 mg/kg/day
- LEL (mouse [15]): 22.5 mg/kg/day
- LOAEL (mouse [15]): 22.5 mg/kg/day
- NEL (mouse [15]): 7.5 mg/kg/day
- NOAEL (mouse [15]): 7.5 mg/kg/day
- LEL (dog [16]): 9.73 mg/kg/day
- LOAEL (dog [16]): 9.73 mg/kg/day
- NEL (dog [16]): 4.89 mg/kg/day
- NOAEL (dog [16]): 4.89 mg/kg/day
- LEL (rat [17]): 42.7 mg/kg/day
- LOAEL (rat [17]): > 42.7 mg/kg/day
- NOAEL (rat [17]): ≥ 42.7 mg/kg/day

Reference: EPA's ToxRefDB 2
